SMILES strings stand for the structures.

Assay [1] concerns coronary arteries (angioplasty site). As to the kind of experiment: IVUS substudy of the MVP restenosis trial. Conditions: for EEM area / Lumen area / Wall area: per segment, mean ± SD. Type of assay: in vivo, human. On the procedure:
The present invention concerns the IVUS substudy from the MVP restenosis trial. MVP was a double-blind placebo-controlled randomized clinical trial with four study groups. The protocol was approved by the Montreal Heart Institute institutional review board. The MVP study design, inclusion and exclusion criteria have been previously described (N Engl J Med 1997; 365-372). Briefly, patients referred for elective coronary angioplasty were evaluated at least 30 days prior to their scheduled procedure. Eligible patients were asked to provide written informed consent. Patients were eligible if they were scheduled to undergo standard balloon angioplasty on at least one native coronary artery and had at least one de novo target lesion with luminal narrowing of fifty percent or more by caliper measurements.
Beginning thirty days prior to scheduled angioplasty, patients were randomly assigned to receive either probucol alone, multivitamins alone, the combination of probucol and multivitamins, or placebo. Probucol 500 mg or matched placebo was administered twice daily. The multivitamin complex, consisting of vitamin E 700 IU, vitamin C 500 mg and beta-carotene 30,000 IU, or matched placebo was also administered in one tablet twice daily. All patients received an extra dose of probucol 1000 mg and/or vitamin E 2000 IU and/or matched placebos twelve hours before angioplasty, according to randomization assignment. […] All patients received aspirin 325 mg daily started at least thirty days before procedure and continued for the study period. Balloon angioplasty was performed according to standard techniques. Intracoronary nitroglycerin (0.3 mg) was given for each target artery for both pre- and post-dilatation angiography and at follow-up. The sequence of contrast injections with the exact degree of angulation was recorded and used for every angiogram. Coronary arteriograms (pre-, post-procedure, and final follow-up) were analyzed together using the Coronary Measurement System (CMS), as previously reported. Patient follow-up included clinical evaluation, exercise treadmill testing, blood chemistry, pill count and drug level measurements, and dietary assessment and intervention. Patients were readmitted for follow-up coronary angiography at five to seven months. Patients in whom arteriography was performed for clinical reasons before the fifth month returned for repeat angiographic examination at five to seven months if no definite angiographic restenosis was present on at least one dilated site. During follow-up, patients with recurrence or exacerbation of anginal symptoms were treated with medical therapy or revascularization procedures (reangioplasty or Coronary Bypass Surgery) as clinically indicated. Patients with angiographic restenosis (lesion>50%. at follow-up) without clinical evidence of ischemia were not subjected to further interventional procedures.
IVUS examinations were performed using 30 MHZ, 3.5 French mechanical (1800 rpm) ultrasound catheters (Boston Scientific, Natick, Mass.) and a dedicated imaging console (Hewlett Packard, Andover, Mass.) (Curr Opin Cardiol 1994; 9:627-633). In six patients, both examinations were performed using 20 MHZ, 3.5 French 64-element IVUS catheters (Endosonics, Pleasanton, Calif.). IVUS studies were first performed after coronary angioplasty (after final balloon inflation) and then after follow-up angiography (before any subsequent intervention) and were always preceded by administration of intracoronary nitroglycerin (0.3 mg). IVUS imaging was monitored by an experienced cardiologist, but the angioplasty operator was blinded to ultrasound results to avoid altering standard balloon angioplasty practice. The IVUS catheter was advanced distal to the dilated site to an easily recognizable landmark, most often a side branch, which was noted and used for follow-up IVUS examination. One angiographic view was recorded on videotape before beginning pullback of the IVUS catheter. […]

The test system of a further assay is LDL. As to the kind of experiment: LDL peroxidation lag phase ex vivo (diene conjugates after addition of copper ions). Type of assay: biochemical, human. As to conditions: treatment for one month; compared with vitamins alone or the combination of probucol and vitamins; preliminary results.
The test system of assay [2] is patients undergoing coronary angioplasty. As to the kind of experiment: MVP randomized clinical trial (angiographic and clinical endpoints). Type of assay: in vivo, human. The source says:
In addition, the invention enables the skilled practitioner to use probucol in conjunction with other percutaneous coronary interventions such as stenting if it is deemed appropriate. The present invention concerns the IVUS substudy from the MVP restenosis trial. MVP was a double-blind placebo-controlled randomized clinical trial with four study groups. The protocol was approved by the Montreal Heart Institute institutional review board. The MVP study design, inclusion and exclusion criteria have been previously described (N Engl J Med 1997; 365-372). Briefly, patients referred for elective coronary angioplasty were evaluated at least 30 days prior to their scheduled procedure. Eligible patients were asked to provide written informed consent. Patients were eligible if they were scheduled to undergo standard balloon angioplasty on at least one native coronary artery and had at least one de novo target lesion with luminal narrowing of fifty percent or more by caliper measurements. Beginning thirty days prior to scheduled angioplasty, patients were randomly assigned to receive either probucol alone, multivitamins alone, the combination of probucol and multivitamins, or placebo. Probucol 500 mg or matched placebo was administered twice daily. The multivitamin complex, consisting of vitamin E 700 IU, vitamin C 500 mg and beta-carotene 30,000 IU, or matched placebo was also administered in one tablet twice daily. […] Balloon angioplasty was performed according to standard techniques. […] The sequence of contrast injections with the exact degree of angulation was recorded and used for every angiogram. Coronary arteriograms (pre-, post-procedure, and final follow-up) were analyzed together using the Coronary Measurement System (CMS), as previously reported. Patient follow-up included clinical evaluation, exercise treadmill testing, blood chemistry, pill count and drug level measurements, and dietary assessment and intervention. Patients were readmitted for follow-up coronary angiography at five to seven months. Patients in whom arteriography was performed for clinical reasons before the fifth month returned for repeat angiographic examination at five to seven months if no definite angiographic restenosis was present on at least one dilated site. During follow-up, patients with recurrence or exacerbation of anginal symptoms were treated with medical therapy or revascularization procedures (reangioplasty or Coronary Bypass Surgery) as clinically indicated. Patients with angiographic restenosis (lesion>50%. at follow-up) without clinical evidence of ischemia were not subjected to further interventional procedures.

[3] abbreviates: Follow-up Post PTCA (follow-up minus after angioplasty), listed as Probucol Alone.
The mark [4] stands for this setting: Follow-up Post PTCA, efficacy analysis in compliant patients.
Where [5] appears, read: Follow-up, listed as Probucol Alone.
Setting [6] is: probucol given alone, compared to placebo.

Take `CC(C)(Sc1cc(C(C)(C)C)c(O)c(C(C)(C)C)c1)Sc1cc(C(C)(C)C)c(O)c(C(C)(C)C)c1` [probucol, 4,4′-([1-methylethylidene)bis(thio)]bis-[2,6-bis(1,1-dimethylethyl)phenol]]: in assay [1] (After Angioplasty), the EEM area came to 12.20 ± 4.66 mm^2, the Lumen area is recorded as 4.62 ± 1.59 mm^2 and the Wall area amounted to 7.57 ± 3.98 mm^2. For the same compound, the “Lumen area, change” value in assay [1] (Follow-up Post PTCA (follow-up minus after angioplasty)) was −0.15 ± 1.70 mm^2. For the same compound, in assay [1] (setting [3]), the “EEM area, change” value stood at 1.74 ± 1.80 mm^2 and the “Wall area, change” value is given as 1.89 ± 1.87 mm^2. For the same compound, the “EEM area, change” value in assay [1] (Follow-up Post PTCA (follow-up minus after angioplasty), listed as probucol alone) was determined as 1.74 mm^2. Moreover, in assay [1] (setting [4]), the “EEM area, change” value is given as 1.74 ± 1.80 mm^2; the “Lumen area, change” value is given as −0.15 ± 1.70 mm^2; the “Wall area, change” value is 1.89 ± 1.87 mm^2. For the same compound, in assay [1] (setting [5]), the EEM area is on record as 13.93 ± 4.74 mm^2, the Lumen area stood at 4.47 ± 1.93 mm^2 and the Wall area was 9.46 ± 4.36 mm^2. Besides, the “patients with an increase in EEM area of at least 1 mm^2 at follow-up” value in assay [1] (in vivo) is 72.0%. Further, the “increase in vessel enlargement” value in assay [1] (probucol only compared with placebo) was “seven hundred-thirty”. In the assay on LDL, the “protection against LDL oxidation (lag phase for LDL peroxidation)” value is on record as “significantly greater protection against LDL oxidation”. In addition, the patients with restenosis entry in assay [2] (MVP study) was “over twenty”. Also, the “reduction in the need for repeat angioplasty” value in assay [2] (probucol given alone, at 6 month, compared to placebo) is reported as “fifty-eight”. In addition, in assay [2] (setting [6]), the “reduction in angiographic lumen loss” value is “sixty-eight” and the “reduction in restenosis rate per segment” value is on record as “forty-seven”.

For the origin of these results see patent US20080241215A1, “LOCAL VASCULAR DELIVERY OF PROBUCOL ALONE OR IN COMBINATION WITH SIROLIMUS TO TREAT RESTENOSIS, VULNERABLE PLAQUE, AAA AND STROKE” (priority 2007, published 2008).
